Results as given in ChEMBL document CHEMBL1129052, “2-[(2-Aminobenzyl)sulfinyl]-1-(2-pyridyl)-1,4,5,6-tetrahydrocyclopent[d]imidazoles as a novel class of gastric H+/K+-ATPase inhibitors” (J Med Chem, 1996).
pIC50: −log10 of the molar value.

Tests used:
[1] = molecular target: Potassium-transporting ATPase (Rattus norvegicus) (UniProt P09626+P18598); test: Gastric antisecretory activity was tested in rats at 30 mg/kg, po expressed as the percentage of inhibition against the acid output of the control group; format: functional, organism-based; design: dose 30 mg/kg
[2] = molecular target: Potassium-transporting ATPase (Sus scrofa, UniProt P19156); test: In vitro inhibition against H+/K+ ATPase from porcine gastric mucosal membrane vesicles; format: tissue-based, Gastric mucosa
[3] = molecular target: Potassium-transporting ATPase (Sus scrofa, UniProt P18434+P19156); test: Inhibition of H+/K+ ATPase from porcine gastric mucosal membrane vesicles; format: tissue-based, Gastric mucosa
Chain of Potassium-transporting ATPase (Sus scrofa, UniProt P18434+P19156) (P18434 whole entry): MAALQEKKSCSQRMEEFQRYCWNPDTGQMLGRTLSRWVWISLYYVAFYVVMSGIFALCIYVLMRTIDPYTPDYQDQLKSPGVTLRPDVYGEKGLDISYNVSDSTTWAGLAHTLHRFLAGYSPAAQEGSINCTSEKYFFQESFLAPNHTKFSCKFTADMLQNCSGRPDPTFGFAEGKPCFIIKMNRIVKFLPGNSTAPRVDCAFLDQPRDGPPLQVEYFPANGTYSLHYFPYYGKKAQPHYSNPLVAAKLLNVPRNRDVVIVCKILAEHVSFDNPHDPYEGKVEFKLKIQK
Chain of Potassium-transporting ATPase (Sus scrofa, UniProt P18434+P19156) (P19156 whole entry): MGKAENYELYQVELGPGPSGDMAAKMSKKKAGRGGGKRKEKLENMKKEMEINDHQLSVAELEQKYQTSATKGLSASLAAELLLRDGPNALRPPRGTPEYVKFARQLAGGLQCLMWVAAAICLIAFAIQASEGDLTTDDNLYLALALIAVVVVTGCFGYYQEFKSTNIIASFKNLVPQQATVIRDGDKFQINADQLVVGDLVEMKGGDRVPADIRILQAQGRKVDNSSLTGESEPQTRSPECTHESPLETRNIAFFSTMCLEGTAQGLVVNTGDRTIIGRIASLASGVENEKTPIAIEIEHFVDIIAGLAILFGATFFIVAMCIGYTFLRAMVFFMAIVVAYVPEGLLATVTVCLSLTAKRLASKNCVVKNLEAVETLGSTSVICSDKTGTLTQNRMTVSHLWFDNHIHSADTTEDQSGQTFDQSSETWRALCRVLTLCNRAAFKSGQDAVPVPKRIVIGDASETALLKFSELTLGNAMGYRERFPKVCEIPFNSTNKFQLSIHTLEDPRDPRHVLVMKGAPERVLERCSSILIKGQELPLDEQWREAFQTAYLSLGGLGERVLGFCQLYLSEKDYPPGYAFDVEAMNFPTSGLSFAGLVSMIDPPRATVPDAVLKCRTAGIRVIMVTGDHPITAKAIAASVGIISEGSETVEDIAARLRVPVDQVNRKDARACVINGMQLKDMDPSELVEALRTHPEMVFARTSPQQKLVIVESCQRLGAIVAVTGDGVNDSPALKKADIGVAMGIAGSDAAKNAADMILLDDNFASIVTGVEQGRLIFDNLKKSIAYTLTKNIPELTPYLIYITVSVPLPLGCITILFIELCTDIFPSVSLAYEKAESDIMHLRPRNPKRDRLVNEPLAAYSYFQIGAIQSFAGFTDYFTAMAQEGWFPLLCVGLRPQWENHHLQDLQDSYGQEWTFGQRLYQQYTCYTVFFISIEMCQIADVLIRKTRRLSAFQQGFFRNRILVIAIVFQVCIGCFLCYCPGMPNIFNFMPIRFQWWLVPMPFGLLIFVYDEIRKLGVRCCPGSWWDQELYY

Chain of Potassium-transporting ATPase (Sus scrofa, UniProt P19156) (P18434 whole entry): as the sequence (P18434 whole entry) above
Chain of Potassium-transporting ATPase (Sus scrofa, UniProt P19156) (P19156 whole entry): as the sequence (P19156 whole entry) above

inhibition [1]	pIC50 [2]	IC50 [3]	Compound
95%	5.59		COc1ccnc(-n2ccnc2[S+]([O-])Cc2ccccc2N(C)C)c1 (configuration not stated)
98%	4.49		CN(C)c1ccccc1C[S+]([O-])c1nccn1C (configuration not stated)
0%		Not Active	CN(C)c1ccccc1C[S+]([O-])c1ncc(-c2ccccc2)n1Cc1ccccc1 (configuration not stated)
13%	4.92		COc1cnc(-n2ccnc2[S+]([O-])Cc2ccccc2N(C)C)cc1OC (configuration not stated)
88%		Not Active	[O-][S+](Cc1ccccc1-n1cccc1)c1nccn1-c1ccccn1 (configuration not stated)
100%		Not Active	[O-][S+](Cc1ccccc1N1CCCCC1)c1nccn1-c1ccccn1 (configuration not stated)
82%	5.12		CCNc1ccccc1C[S+]([O-])c1nccn1-c1ncccc1OC (configuration not stated)
11%	5.17		CN(C)c1ccccc1C[S+]([O-])c1nccn1-c1cc(OCC(F)(F)F)ccn1 (configuration not stated)
0%	4.96		Cc1cc(C)nc(-n2ccnc2[S+]([O-])Cc2ccccc2N(C)C)c1 (configuration not stated)
72%	4.85		CN(C)c1ccccc1C[S+]([O-])c1nccn1Cc1ccccc1 (configuration not stated)
85%		Not Active	COc1cccnc1-n1ccnc1[S+]([O-])Cc1ccccc1N1CCOCC1 (configuration not stated)
100%	4.34		CN(C)c1ccccc1C[S+]([O-])c1nccn1Cc1ccccn1 (configuration not stated)
98%	4.92		COc1ccc(-n2ccnc2[S+]([O-])Cc2ccccc2N(C)C)nc1 (configuration not stated)
22%		Not Active	[O-][S+](Cc1ccccc1-n1ccnc1)c1nccn1-c1ccccn1 (configuration not stated)
73%	4.02		COc1cccnc1-n1c([S+]([O-])Cc2ccccc2N(C)C)nc2c1CCC2 (configuration not stated)
0%		Not Active	CN(C)c1ccccc1C[S+]([O-])c1nc(-c2ccccc2)c(-c2ccccc2)[nH]1 (configuration not stated)
47%		Not Active	Cc1cccnc1-n1ccnc1[S+]([O-])Cc1ccccc1-n1cccc1 (configuration not stated)
87%	< 4.00		Cc1cccnc1-n1c([S+]([O-])Cc2ccccc2N(C)C)nc2c1CCC2 (configuration not stated)
47%	4.36		Cc1ccc(-n2ccnc2[S+]([O-])Cc2ccccc2N(C)C)nc1 (configuration not stated)
20%	4.17		CN(C)c1ccccc1C[S+]([O-])c1nc2c(n1-c1ccccc1)CCC2 (configuration not stated)
30%		Not Active	CN(C)c1ccccc1C[S+]([O-])c1nccn1-c1cccnc1 (configuration not stated)

inhibition [1]	pIC50 [2]	IC50 [3]	Compound
34%	4.80		CN(C)c1ccccc1C[S+]([O-])c1nccn1-c1ncccc1OCc1ccccc1 (configuration not stated)
0%		Not Active	CCN(CC)c1ccccc1C[S+]([O-])c1nc2c(n1-c1ccncc1)CCC2 (configuration not stated)
98%	4.01		Cc1cccnc1-n1ccnc1[S+]([O-])Cc1ccccc1N (configuration not stated)
80%	4.49		CN(C)c1ccccc1C[S+]([O-])c1ncc[nH]1 (configuration not stated)
2%	4.92		CC(=O)Oc1cccnc1-n1ccnc1[S+]([O-])Cc1ccccc1N(C)C (configuration not stated)
36%	5.13		CN(C)c1ccccc1C[S+]([O-])c1nccn1-c1ccc(C(F)(F)F)cn1 (configuration not stated)
12%	4.26		CN(C)c1ccccc1C[S+]([O-])c1nc2c(n1Cc1ccccn1)CCC2 (configuration not stated)
0%	4.89		COc1cccc(-n2ccnc2[S+]([O-])Cc2ccccc2N(C)C)n1 (configuration not stated)
42%	4.55		CN(C)c1ccccc1C[S+]([O-])c1nc2c(n1Cc1ccccc1)CCC2 (configuration not stated)
87%	4.36		CN(C)c1ccccc1C[S+]([O-])c1nccn1CCc1ccccn1 (configuration not stated)
76%	5.26		CN(C)c1ccccc1C[S+]([O-])c1nccn1-c1ccccn1 (configuration not stated)
	5.12		CNc1ccccc1C[S+]([O-])c1nccn1-c1ncccc1C (configuration not stated)
0%			CN(C)c1ccccc1C[S+]([O-])c1nccn1-c1ccc(Br)cn1 (configuration not stated)
99%		Not Active	CC(=O)Nc1ccccc1C[S+]([O-])c1nccn1-c1ccccn1 (configuration not stated)
62%		Not Active	COc1cccnc1-n1ccnc1[S+]([O-])Cc1ccccc1N1CCCCC1 (configuration not stated)
12%	4.23		CN(C)c1ccccc1C[S+]([O-])c1nc2c(n1-c1ccccn1)CCCC2 (configuration not stated)
59%	5.47		COc1cc(C)nc(-n2ccnc2[S+]([O-])Cc2ccccc2N(C)C)c1 (configuration not stated)
39%		Not Active	COc1cccnc1-n1ccnc1[S+]([O-])Cc1ccccc1-n1cccc1 (configuration not stated)
64%	4.70		CC(=O)Nc1ccc(-n2ccnc2[S+]([O-])Cc2ccccc2N(C)C)nc1 (configuration not stated)
38%		Not Active	CCN(CC)c1ccccc1C[S+]([O-])c1nc2c(n1Cc1ccccn1)CCC2 (configuration not stated)
79%	5.60		Cc1ccnc(-n2ccnc2[S+]([O-])Cc2ccccc2N(C)C)c1 (configuration not stated)

inhibition [1]	pIC50 [2]	IC50 [3]	Compound
54%	5.15		CNc1ccccc1C[S+]([O-])c1nccn1-c1ccccn1 (configuration not stated)
46%	4.30		Cc1cc(Br)cnc1-n1ccnc1[S+]([O-])Cc1ccccc1N(C)C (configuration not stated)
100%		Not Active	Cc1cccnc1-n1ccnc1[S+]([O-])Cc1ccccc1N1CCOCC1 (configuration not stated)
30%		Not Active	CN(C)c1ccccc1C[S+]([O-])c1nccn1-c1cnccn1 (configuration not stated)
53%		Not Active	CCN(CC)c1ccccc1C[S+]([O-])c1nc2c(n1-c1ncccc1C)CCC2 (configuration not stated)
0%		Not Active	[O-][S+](Cc1ccccc1-n1cccn1)c1nccn1-c1ccccn1 (configuration not stated)
79%	4.00		COc1cccnc1-n1ccnc1[S+]([O-])Cc1ccccc1N (configuration not stated)
65%	4.37		CN(C)c1ccccc1C[S+]([O-])c1nccn1-c1nccc2ccccc12 (configuration not stated)
29%	4.57		Nc1ccccc1C[S+]([O-])c1nccn1-c1ccccn1 (configuration not stated)
83%	5.22		CNc1ccccc1C[S+]([O-])c1nccn1-c1ncccc1OC (configuration not stated)
21%		Not Active	[O-][S+](Cc1ccccc1-n1cccc1)c1nc2c(n1-c1ccccn1)CCC2 (configuration not stated)
0%		Not Active	CN(C)c1ccccc1C[S+]([O-])c1nc(-c2ccccc2)cn1Cc1ccccc1 (configuration not stated)
0%	4.46		CN(C)c1ccccc1C[S+]([O-])c1nccn1-c1ccc(C#N)cn1 (configuration not stated)
94%		Not Active	CCN(CC)c1ccccc1C[S+]([O-])c1nccn1-c1ncccc1OC (configuration not stated)
96%	4.51		CCN(CC)c1ccccc1C[S+]([O-])c1nccn1-c1ccccn1 (configuration not stated)
97%	4.49		CN(C)c1ccccc1C[S+]([O-])c1nc2c(n1-c1ccccn1)CCC2 (configuration not stated)
90%		Not Active	[O-][S+](Cc1ccccc1N1CCOCC1)c1nccn1-c1ccccn1 (configuration not stated)
0%		Not Active	CN(C)c1ccccc1C[S+]([O-])c1ncc(-c2ccccc2)n1C (configuration not stated)
9%	4.17		CN(C)c1ccccc1C[S+]([O-])c1nccn1-c1ccccc1 (configuration not stated)
1%	5.32		CN(C)c1ccccc1C[S+]([O-])c1nccn1-c1ncccc1O (configuration not stated)
98%	4.96		CCN(CC)c1ccccc1C[S+]([O-])c1nc2c(n1-c1ccccn1)CCC2 (configuration not stated)

inhibition [1]	pIC50 [2]	IC50 [3]	Compound
100%	4.48		Cc1cccnc1-n1ccnc1[S+]([O-])Cc1ccccc1N(C)C (configuration not stated)
0%	4.22		CN(C)c1ccccc1C[S+]([O-])c1nccn1-c1ccc([N+](=O)[O-])cn1 (configuration not stated)
82%		Not Active	Cc1cccnc1-n1ccnc1[S+]([O-])Cc1ccccc1N1CCCCC1 (configuration not stated)
75%		Not Active	CC(=O)Nc1ccccc1C[S+]([O-])c1nc2c(n1-c1ccccn1)CCC2 (configuration not stated)
48%	5.24		CN(C)c1ccccc1C[S+]([O-])c1nccn1-c1ccc(N)cn1 (configuration not stated)
80%		Not Active	[O-][S+](Cc1ccccc1N1CCOCC1)c1nc2c(n1-c1ccccn1)CCC2 (configuration not stated)
100%	4.74		CCNc1ccccc1C[S+]([O-])c1nccn1-c1ncccc1C (configuration not stated)
30%		Not Active	CN(C)c1ccccc1C[S+]([O-])c1nccn1-c1ncccn1 (configuration not stated)
0%		Not Active	CN(C)c1ccccc1C[S+]([O-])c1ncc(-c2ccccc2)n1-c1ccccc1 (configuration not stated)
69%	4.80		CC(C)Oc1cccnc1-n1ccnc1[S+]([O-])Cc1ccccc1N(C)C (configuration not stated)
90%	4.09		CNc1ccccc1C[S+]([O-])c1nc2c(n1-c1ncccc1C)CCC2 (configuration not stated)
100%	4.00		CCN(CC)c1ccccc1C[S+]([O-])c1nccn1-c1ncccc1C (configuration not stated)
57%	4.85		Cc1cccc(-n2ccnc2[S+]([O-])Cc2ccccc2N(C)C)n1 (configuration not stated)
100%	4.44		CN(C)c1ccccc1C[S+]([O-])c1nccn1-c1ccncc1 (configuration not stated)
100%	4.48		COc1cccnc1-n1ccnc1[S+]([O-])Cc1ccccc1N(C)C (configuration not stated)
0%	4.89		CN(C)c1ccccc1C[S+]([O-])c1nccn1-c1ccc(Cl)cn1 (configuration not stated)
0%		Not Active	CCN(CC)c1ccccc1C[S+]([O-])c1nc2c(n1-c1cccnc1)CCC2 (configuration not stated)
0%		Not Active	CN(C)c1ccccc1C[S+]([O-])c1nc(-c2ccccc2)cn1C (configuration not stated)
90%		Not Active	COc1cccnc1-n1ccnc1[S+]([O-])Cc1ccccc1NC(C)=O (configuration not stated)
